How the values were obtained:
[1] = tested on: Mice immunized with KLH; experiment: Nerve block: antigen signal in sciatic lymph node after bupivacaine; format: in vivo; details: 25 μl bupivacaine 0.375% at sciatic and femoral nerves before KLH-800CW in hind paw, imaged after one hour, mean±SEM, saline control 31.45±3.759, p<0.05
Procedure: In situ Antigen Imaging. 20 μl of 100 μg/ml labeled antigen was injected subcutaneously into the dorsum of the hind paw with an insulin syringe. After the predetermined time, the animal was euthanized using carbon dioxide, the skin over the area of interest was removed, and the animal was placed in a supine position in an Odyssey infrared imager. To image lymph node antigen content, sciatic and popliteal lymph nodes were surgically removed and placed into black, clear-bottomed 96-well plates filled with T-per (Thermo Scientific). These plates were imaged on the Odyssey imager. Immunization. Unlabeled antigen (100 μg) and 50% Imject alum (Thermo Scientific) in 200 μl 0.9% saline was injected intraperitoneally. Two weeks later, animals were injected again with the same solution as a booster. Two weeks after the booster injection, animals were used for experiments. Control animals received injections of 50% alum in saline. Nerve Block. Mice were immunized with 100 μg antigen and 50% Imject alum in 200 μl saline injected intraperitoneally twice, two weeks apart. Two weeks after the second injections, 25 μl bupivacaine (0.375%, APP Pharmaceuticals) or 0.9% saline was injected at the sciatic nerve and the femoral nerve of the hind leg. 20 minutes after the initial injection, animals were injected with labeled antigen in the dorsum of the hind paw. […]

[2] = tested on: Naïve Balb/c mice; experiment: Passive immunization: labeled antigen accumulation in sciatic lymph nodes; format: in vivo; details: naïve mice given rabbit polyclonal anti-OVA antibodies i.p.; 24 hours later 800CW-labeled antigen s.c. in dorsum of hind paw; imaged after one hour; mean±SEM
Procedure: In situ Antigen Imaging. 20 μl of 100 μg/ml labeled antigen was injected subcutaneously into the dorsum of the hind paw with an insulin syringe. After the predetermined time, the animal was euthanized using carbon dioxide, the skin over the area of interest was removed, and the animal was placed in a supine position in an Odyssey infrared imager. To image lymph node antigen content, sciatic and popliteal lymph nodes were surgically removed and placed into black, clear-bottomed 96-well plates filled with T-per (Thermo Scientific). These plates were imaged on the Odyssey imager.
Passive Immunization. Naïve Balb/c mice were injected intraperitoneally with 100 μg rabbit polyclonal anti-ovalbumin antibody (Millipore). After 24 hours, mice were injected with OVA-800CW or KLH-800CW subcutaneously in the dorsum of the hind paw. After one hour, mice were euthanized and imaged.

| Molecule | antigen signal in the sciatic lymph node (KLH-800CW fluorescence) [1] | accumulation of labeled antigen in the sciatic lymph nodes (fluorescence signal) [2] |
| --- | --- | --- |
| CCCCN1CCCCC1C(=O)Nc1c(C)cccc1C (centres unmarked) [bupivacaine] | 45.65±5.350 | – |
| OVA: ovalbumin labeled with IrDye 800CW-NHS ester infrared fluorescent dye (conjugate, UniProt P01012 2-386, looked up, IRDye 800CW label, ovalbumin labeled with IrDye 800CW-NHS ester infrared fluorescent dye) Ovalbumin: GSIGAASMEFCFDVFKELKVHHANENIFYCPIAIMSALAMVYLGAKDSTRTQINKVVRFDKLPGFGDSIEAQCGTSVNVHSSLRDILNQITKPNDVYSFSLASRLYAEERYPILPEYLQCVKELYRGGLEPINFQTAADQARELINSWVESQTNGIIRNVLQPSSVDSQTAMVLVNAIVFKGLWEKAFKDEDTQAMPFRVTEQESKPVQMMYQIGLFRVASMASEKMKILELPFASGTMSMLVLLPDEVSGLEQLESIINFEKLTEWTSSNVMEERKIKVYLPRMKMEEKYNLTSVLMAMGITDVFSSSANLSGISSAESLKISQAVHAAHAEINEAGREVVGSAEAGVDAASVSEEFRADHPFLFCIKHIATNAVLFFGRCVSP | – | 6.483±1.461 |

— patent publication US10926086B2, “Lymphatic system neuromodulation and uses thereof” (THE FEINSTEIN INSTITUTES FOR MEDICAL RESEARCH, priority 2016, dated 2021)
